Experimental data: patent US8088806B2 (Achillion Pharmaceuticals, Inc., priority 2005, dated 2012)

The compounds below were run on HCV replicon (assay: Replicon based assay of HCV replication inhibition (NPT ELISA)). Details: Hepatitis C virus, Huh-7, 72 h, Table III; Huh-7 HCV replicon-containing cells, three days; read-out: Activity.
Format: cell-based, Hepatitis C virus
How it was run: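 Huh-7 cells carrying a bicistronic HCV replicon (neo, EMCV-IRES-driven NS3–NS5B) treated overnight after seeding with usually 6 concentrations, 10 to 0.03 micromolar, for three days at 37° C without G418. Replication read as NPT level by captured ELISA; matched-DMSO wells and interferon alpha as controls.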

`CCCCCCCCOc1ccc(Nc2nc(-c3ccc4[nH]c(=O)oc4c3)cs2)cc1C(F)(F)F` [compound 585, 6-(2-(3-(trifluoromethyl)-4-(octyloxy)phenylamino)thiazol-4-yl)benzo[d]oxazol-2(3H)-one] and `CCCCCCCCOc1ccc(Nc2nc(-c3ccc(Cl)cc3)cs2)cc1C(F)(F)F` [compound 591, 4-(4-chlorophenyl)-N-(3-(trifluoromethyl)-4-(octyloxy)phenyl)thiazol-2-amine] cannot be ordered by EC50: under 1000 nM for the first, under 1000 nM for the second.

`CCCCCCCCOc1ccc(Nc2nc(-c3ccc(OCC(=O)O)cc3)c(C)s2)cc1C(F)(F)F` [compound 586, 2-(4-(2-(3-(trifluoromethyl)-4-(octyloxy)phenylamino)-5-methylthiazol-4-yl)phenoxy)acetic acid] and `CCCCCCCCOc1ccc(Nc2nc(-c3ccc(C#N)nc3)cs2)cc1C(F)(F)F` [compound 613, 5-(2-(3-(trifluoromethyl)-4-(octyloxy)phenylamino)thiazol-4-yl)pyridine-2-carbonitrile] cannot be ordered by EC50: under 1000 nM for the first, under 1000 nM for the second.

`CCCCCCCCOc1ccc(Nc2nc(-c3ccccn3)cs2)cc1C(F)(F)F` [compound 587, N-(3-(trifluoromethyl)-4-(octyloxy)phenyl)-4-(pyridin-2-yl)thiazol-2-amine] and `CCCCCCCCOc1ccc(Nc2nc(-c3ccc(-c4ccccn4)s3)cs2)cc1C(F)(F)F` [compound 588, N-(3-(trifluoromethyl)-4-(octyloxy)phenyl)-4-(5-(pyridin-2-yl)thiophen-2-yl)thiazol-2-amine] cannot be ordered by EC50: under 1000 nM for the first, under 1000 nM for the second.

`CCCCCCCCOc1ccc(Nc2nc(-c3cc4ccccc4o3)cs2)cc1C(F)(F)F` [compound 589, 4-(benzofuran-2-yl)-N-(3-(trifluoromethyl)-4-(octyloxy)phenyl)thiazol-2-amine] and `CCCCCCCCOc1ccc(Nc2nc(-c3cnccn3)cs2)cc1C(F)(F)F` [compound 596, N-(3-(trifluoromethyl)-4-(octyloxy)phenyl)-4-(pyrazin-2-yl)thiazol-2-amine] cannot be ordered by EC50: under 1000 nM for the first, under 1000 nM for the second.

`CCCCCCCCOc1ccc(Nc2nc(-c3sc(-c4cnccn4)nc3C)cs2)cc1C(F)(F)F` [compound 590, N-(3-(trifluoromethyl)-4-(octyloxy)phenyl)-4-(4-methyl-2-(pyrazin-2-yl)thiazol-5-yl)thiazol-2-amine] and `CCCCCCCCOc1ccc(Nc2nccs2)cc1C(F)(F)F` [compound 605, N-(3-(trifluoromethyl)-4-(octyloxy)phenyl)thiazol-2-amine] cannot be ordered by EC50: under 1000 nM for the first, under 1000 nM for the second.

`CCCCCOc1ccc(Nc2nc3c(s2)CCc2ccncc2-3)cc1C(F)(F)F` [compound 592, N-(3-(trifluoromethyl)-4-(pentyloxy)phenyl)-4,5-dihydrothiazolo[5,4-h]isoquinolin-2-amine] and `CCCCCOc1ccc(Nc2nc3c(s2)CCc2ncccc2-3)cc1C(F)(F)F` [compound 594] cannot be ordered by EC50: under 1000 nM for the first, under 1000 nM for the second.

First: CCCCCCCCOc1ccc(Nc2nc3c(s2)CCc2ccncc2-3)cc1 [compound 593, 4,5-dihydro-N-(4-(octyloxy)phenyl)thiazolo[5,4-h]isoquinolin-2-amine]
Second: CCCCCCCCOc1ccc(Nc2nc3c(s2)CCc2ncccc2-3)cc1 [compound 595, 4,5-dihydro-N-(4-(octyloxy)phenyl)thiazolo[4,5-f]quinolin-2-amine]
The EC50 of the first is lower: under 1000 nM for the first, 1000 to 10000 nM for the second. The first is the more potent here.

`CCCC(CCC)Oc1ccc(Nc2nc(-c3cnccn3)cs2)cc1C(F)(F)F` [compound 597, N-(3-(trifluoromethyl)-4-(heptan-4-yloxy)phenyl)-4-(pyrazin-2-yl)thiazol-2-amine] and `FC(F)(F)c1cc(Nc2nc(-c3cnccn3)cs2)ccc1OC1CCCC1` [compound 606, N-(4-(cyclopentyloxy)-3-(trifluoromethyl)phenyl)-4-(pyrazin-2-yl)thiazol-2-amine] cannot be ordered by EC50: under 1000 nM for the first, under 1000 nM for the second.

First: CCCCCCCCOc1ccc(Nc2nc(-c3cnccn3)cs2)cc1 [compound 598, N-(4-(octyloxy)phenyl)-4-(pyrazin-2-yl)thiazol-2-amine]
Second: CCCCCCCCOc1ccc(Nc2nc(Cc3ccc(F)c(F)c3)cs2)cc1 [compound 608, 4-(3,4-difluorobenzyl)-N-(4-(octyloxy)phenyl)thiazol-2-amine]
The EC50 of the first is lower: under 1000 nM for the first, over 10000 nM for the second. The first is the more potent here.

`CCCCCOc1ccc(Nc2nc(/C=C/c3ccc(F)c(F)c3)cs2)cc1C(F)(F)F` [compound 599, 4-(3,4-difluorostyryl)-N-(3-(trifluoromethyl)-4-(pentyloxy)phenyl)thiazol-2-amine] and `CCCCCOc1ccc(Nc2nc(/C=C/c3ccc(Cl)cc3)cs2)cc1C(F)(F)F` [compound 601, 4-(4-chlorostyryl)-N-(3-(trifluoromethyl)-4-(pentyloxy)phenyl)thiazol-2-amine] cannot be ordered by EC50: under 1000 nM for the first, under 1000 nM for the second.

First: CCCCCOc1ccc(Nc2nc(/C=C/c3ccc(OC)cc3)cs2)cc1C(F)(F)F [compound 600, 4-(4-methoxystyryl)-N-(3-(trifluoromethyl)-4-(pentyloxy)phenyl)thiazol-2-amine]
Second: CCCCCOc1ccc(Nc2nc(Cc3ccc(F)c(F)c3)cs2)cc1C(F)(F)F [compound 607, 4-(3,4-difluorobenzyl)-N-(3-(trifluoromethyl)-4-(pentyloxy)phenyl)thiazol-2-amine]
The EC50 of the first is lower: under 1000 nM for the first, 1000 to 10000 nM for the second.

Compared with `CCCCCCCOc1ccc(C(=O)Nc2nc(-c3cccnc3)cs2)cc1` [compound 602, 4-(heptyloxy)-N-(4-(pyridin-3-yl)thiazol-2-yl)benzamide], `CCCCCOc1ccc(Nc2nc(-c3ccc(C#N)nc3)cs2)cc1F` [compound 615, 5-(2-(3-fluoro-4-(pentyloxy)phenylamino)thiazol-4-yl)pyridine-2-carbonitrile] is lower in EC50: over 10000 nM for the first, under 1000 nM for the second. The second is the more potent here.

`CCCCCOc1ccc(Nc2nc(-c3cncc(C(=O)OCC)c3)cs2)cc1C(F)(F)F` [compound 603, ethyl 5-(2-(3-(trifluoromethyl)-4-(pentyloxy)phenylamino)thiazol-4-yl)pyridine-3-carboxylate] and `CCCCCCCCOc1ccc(Nc2nc(Cc3ccc(F)c(F)c3)cs2)cc1C(F)(F)F` [compound 609, 4-(3,4-difluorobenzyl)-N-(3-(trifluoromethyl)-4-(octyloxy)phenyl)thiazol-2-amine] fall in the same range of EC50: 1000 to 10000 nM for the first, 1000 to 10000 nM for the second.

`CCCCCOc1ccc(Nc2nc(Cc3ccc(F)c(F)c3)cs2)cc1F` [compound 610, 4-(3,4-difluorobenzyl)-N-(3-fluoro-4-(pentyloxy)phenyl)thiazol-2-amine] and `CCCCCN(C)c1ccc(Nc2nc(Cc3ccc(F)c(F)c3)cs2)cc1C(F)(F)F` [compound 611, N^4-(4-(3,4-difluorobenzyl)thiazol-2-yl)-2-(trifluoromethyl)-N^1-methyl-N^1-pentylbenzene-1,4-diamine] cannot be ordered by EC50: over 10000 nM for the first, over 10000 nM for the second.

First: CCCCCCCCN(C)c1ccc(Nc2nc(Cc3ccc(F)c(F)c3)cs2)cc1 [compound 612, N^1-(4-(3,4-difluorobenzyl)thiazol-2-yl)-N^4-methyl-N^4-octylbenzene-1,4-diamine]
Second: N#Cc1ccc(-c2csc(Nc3ccc(OCCCC4CCCC4)c(C(F)(F)F)c3)n2)cn1 [compound 614]
The EC50 of the first is higher: over 10000 nM for the first, under 1000 nM for the second. The second is the more potent here.

Work on `N#Cc1ccc(-c2csc(Nc3ccc(OC4CCCC4)c(C(F)(F)F)c3)n2)cn1` [compound 616, 5-(2-(4-(cyclopentyloxy)-3-(trifluoromethyl)phenylamino)thiazol-4-yl)pyridine-2-carbonitrile] yielded an EC50 of under 1000 nM.
